Columns and labels:
Assay type in all cases: in vivo
[1] = system: Echinochloa crus-galli (ECHCG); assay: Post-emergence herbicidal glasshouse test, ECHCG; conditions: 125 g/h, evaluated after 13 days, five-point scale
Protocol: (§1) Seeds of a variety of test species are sown in standard soil in pots (Lolium perenne (LOLPE), Amaranthus retoflexus (AMARE), Abutilon theophrasti (ABUTH), Setaria faberi (SETFA), Echinochloa crus-galli (ECHCG), Ipomoea hederacea (IPOHE)). After cultivation for one day (pre-emergence) or after 8 days cultivation (post-emergence) under controlled conditions in a glasshouse (at 24/16° C., day/night; 14 hours light; 65% humidity), the plants are sprayed with an aqueous spray solution derived from the formulation of the technical active ingredient in acetone/water (50:50) solution containing 0.5% Tween 20 (polyoxyethelyene sorbitan monolaurate, CAS RN 9005-64-5). Compounds are applied at 125 g/h unless otherwise indicated. The test plants are then grown in a glasshouse under controlled conditions in a glasshouse (at 24/16° C., day/night; 14 hours light; 65% humidity) and watered twice daily. After 13 days for pre and post-emergence, the test is evaluated for the percentage damage caused to the plant. The biological activities are shown in the following table on a five-point scale (5=80-100%; 4=60-79%; 3=40-59%; 2=20-39%; 1=0-19%). “—” denotes not tested on this species or data not captured.

[2] = system: Amaranthus retoflexus (AMARE); assay: Pre-emergence herbicidal glasshouse test, AMARE; conditions: 125 g/h, evaluated after 13 days, five-point scale
Protocol: as §1

[3] = system: Ipomoea hederacea (IPOHE); assay: Pre-emergence herbicidal glasshouse test, IPOHE; conditions: 125 g/h, evaluated after 13 days, five-point scale
Protocol: as §1

Setaria faberi (SETFA) [4] = assay: Pre-emergence herbicidal glasshouse test, SETFA; conditions: 125 g/h, evaluated after 13 days, five-point scale
Protocol: as §1

Setaria faberi (SETFA) [5] = assay: Post-emergence herbicidal glasshouse test, SETFA; conditions: 125 g/h, evaluated after 13 days, five-point scale
Protocol: as §1

[6] = system: Ipomoea hederacea (IPOHE); assay: Post-emergence herbicidal glasshouse test, IPOHE; conditions: 125 g/h, evaluated after 13 days, five-point scale
Protocol: as §1

[7] = system: Amaranthus retoflexus (AMARE); assay: Post-emergence herbicidal glasshouse test, AMARE; parameters: dose or concentration left out as unconfirmed; conditions: evaluated after 13 days, five-point scale
Protocol: as §1

[8] = system: Echinochloa crus-galli (ECHCG); assay: Pre-emergence herbicidal glasshouse test, ECHCG; conditions: 125 g/h, evaluated after 13 days, five-point scale
Protocol: as §1

Row | SMILES | percentage damage caused to the plant, POST Application ECHCG [1] | percentage damage caused to the plant, PRE Application AMARE [2] | percentage damage caused to the plant, PRE Application IPOHE [3] | percentage damage caused to the plant, PRE Application SETFA (Setaria faberi (SETFA) [4]) | percentage damage caused to the plant, POST Application SETFA (Setaria faberi (SETFA) [5]) | percentage damage caused to the plant, POST Application IPOHE [6] | percentage damage caused to the plant, POST Application AMARE [7] | percentage damage caused to the plant, PRE Application ECHCG [8]
1 | Cn1nnnc1NC(=O)c1ccc(OC(F)(F)F)c(NC(=O)OC2CCOCC2)c1Cl [Compound 1.020] | 5 (5=80-100%) | 5 (5=80-100%) | 5 (5=80-100%) | 5 (5=80-100%) | 5 (5=80-100%) | 5 (5=80-100%) | 5 (5=80-100%) | 5 (5=80-100%)
2 | CC(=O)N1CCC(OC(=O)Nc2c(OC(F)(F)F)ccc(C(=O)Nc3nnnn3C)c2Cl)CC1 [Compound 1.021] | 5 (5=80-100%) | 3 (3=40-59%) | 2 (2=20-39%) | 1 (1=0-19%) | 4 (4=60-79%) | 2 (2=20-39%) | 4 (4=60-79%) | 1 (1=0-19%)
3 | COCCCOC(=O)Nc1c(OC(F)F)ccc(C(=O)Nc2nnnn2C)c1Cl [Compound 1.022] | 5 (5=80-100%) | 5 (5=80-100%) | 4 (4=60-79%) | 4 (4=60-79%) | 5 (5=80-100%) | 4 (4=60-79%) | 5 (5=80-100%) | 4 (4=60-79%)
4 | CC(=O)N1CCC(OC(=O)Nc2c(OC(F)F)ccc(C(=O)Nc3nnnn3C)c2Cl)CC1 [Compound 1.023] | 3 (3=40-59%) | 3 (3=40-59%) | 2 (2=20-39%) | 1 (1=0-19%) | 2 (2=20-39%) | 1 (1=0-19%) | 4 (4=60-79%) | 1 (1=0-19%)
5 | Cn1nnnc1NC(=O)c1ccc(OC(F)F)c(NC(=O)OCCC#N)c1Cl [Compound 1.024] | 5 (5=80-100%) | 5 (5=80-100%) | 5 (5=80-100%) | 3 (3=40-59%) | 5 (5=80-100%) | 4 (4=60-79%) | 5 (5=80-100%) | 4 (4=60-79%)
6 | Cn1nnnc1NC(=O)c1ccc(OC(F)F)c(NC(=O)OC2CCOCC2)c1Cl [Compound 1.027] | 5 (5=80-100%) | 4 (4=60-79%) | 4 (4=60-79%) | 5 (5=80-100%) | 5 (5=80-100%) | 5 (5=80-100%) | 5 (5=80-100%) | 4 (4=60-79%)
7 | CCOC(=O)N(CC)c1c(OC(F)(F)F)ccc(C(=O)Nc2nnnn2C)c1Cl [Compound 1.031] | 5 (5=80-100%) | 5 (5=80-100%) | 5 (5=80-100%) | 5 (5=80-100%) | 5 (5=80-100%) | 5 (5=80-100%) | 5 (5=80-100%) | 5 (5=80-100%)
8 | COC(=O)Nc1c(OC(F)(F)F)ccc(C(=O)Nc2nnnn2C)c1C [Compound 1.035] | 5 (5=80-100%) | 5 (5=80-100%) | 3 (3=40-59%) | 5 (5=80-100%) | 5 (5=80-100%) | 3 (3=40-59%) | 5 (5=80-100%) | 5 (5=80-100%)
9 | CCOC(=O)Nc1c(OC(F)(F)F)ccc(C(=O)Nc2nnnn2C)c1C [Compound 1.036] | 5 (5=80-100%) | 5 (5=80-100%) | 5 (5=80-100%) | 5 (5=80-100%) | 5 (5=80-100%) | 5 (5=80-100%) | 5 (5=80-100%) | 5 (5=80-100%)
10 | Cn1nnnc1NC(=O)c1ccc(OC(F)F)c(N2CCOC2=O)c1Cl [Compound 1.037] | 5 (5=80-100%) | 5 (5=80-100%) | 5 (5=80-100%) | 5 (5=80-100%) | 5 (5=80-100%) | 5 (5=80-100%) | 5 (5=80-100%) | 5 (5=80-100%)
11 | CCOC(=O)N(C)c1c(OC(F)F)ccc(C(=O)Nc2nnnn2C)c1Cl [Compound 1.041] | 5 (5=80-100%) | 5 (5=80-100%) | 4 (4=60-79%) | 4 (4=60-79%) | 5 (5=80-100%) | 5 (5=80-100%) | 5 (5=80-100%) | 5 (5=80-100%)
12 | COC(=O)N(C)c1c(OC(F)F)ccc(C(=O)Nc2nnnn2C)c1Cl [Compound 1.042] | 5 (5=80-100%) | 5 (5=80-100%) | 4 (4=60-79%) | 5 (5=80-100%) | 5 (5=80-100%) | 5 (5=80-100%) | 5 (5=80-100%) | 5 (5=80-100%)
13 | CCN(C(=O)OC)c1c(OC(F)F)ccc(C(=O)Nc2nnnn2C)c1Cl [Compound 1.043] | 5 (5=80-100%) | 5 (5=80-100%) | 3 (3=40-59%) | 5 (5=80-100%) | 5 (5=80-100%) | 4 (4=60-79%) | 5 (5=80-100%) | 5 (5=80-100%)
